Results as given in patent publication US20080146457A1, “METHOD FOR THE DETERMINATION OF CELL ACTIVATION” (priority 2003, published 2008).

How the values were obtained:
Format in all cases: cell-based
Erk1/2 = experiment: Phosphorylation status of Erk1/2 in PMA-treated Jurkat cells on double antibody array; settings: PMA 0.1 to 1000 ng/ml, 10 minutes
JNK1/2 = experiment: Level of phosphorylation of JNK1/2 in anisomycin-treated Jurkat cells on multiplex arrays
Description: (§1) Hybridization chambers were placed onto diaglass functionalized slides (EAT, Namur, Belgium) spotted with antibodies specific of the protein to be detected, in this case anti-Akt antibodies. The spotting was performed with a split pin or a pin and ring or a plain pin. Each spot contained between 0.5 and 10 nl depending on the type of pin used and its diameter.
(§2) The slides were washed 4×1 min in Washing Buffer (EAT, Namur, Belgium). The slides were then incubated for 1 h with 500 μl of a specific rabbit detection antibody against phospho-Akt diluted 500× in Blocking Buffer (EAT, Namur, Belgium). The slides were washed 4×1 min in Washing Buffer. The slides were then incubated for 45 min at room temperature with a conjugated antibody (anti-rabbit Cy3) diluted 1000× in Blocking Buffer. The slides were washed 4×1 min in Washing Buffer and then rinsed twice in water. The slides were scanned in a laser confocal scanner “ScanArray” (Packard, USA) at a resolution of 10 μm.
(§3) The assay was performed as described in Example 1, but two identical arrays were present on each slide. The capture antibodies spotted on the left and right arrays were the same, but the detection antibodies were either specific to the phospho-Akt (right arrays) or to the total Akt (left arrays). Four different mixes were prepared as follows: (1) 40 ng of purified Akt and 40 ng of purified phospho Akt; (2) 40 ng of purified Akt and 20 ng of purified phospho Akt; (3) 40 ng of purified Akt and 10 ng of purified phospho Akt; (4) 40 ng of purified Akt and 5 ng of purified phospho Akt. In this experiment, four slides were used. […] The intensity of the spots on each array was then quantified and the results clearly show decreasing signal intensities correlating with decreasing concentrations of phospho-Akt on the right arrays. The calculated ratios of phospho vs. total Akt directly relates to the known concentration used in the four different mixes.
(§4) Each slide contained 2 identical arrays. The two arrays were incubated with the same samples possibly containing the proteins to be detected. The left array was then incubated with a mixture of 7 detection antibodies directed against the 7 proteins to be detected. The right array was incubated with a mixture of 7 detection antibodies directed against the phospho-specific form of the 7 proteins to be detected. […] The samples consisted of each of the 7 proteins to be detected, in their non-phosphorylated or phosphorylated form, or combinations thereof.
(§5) The experiment was performed on slides containing a double array as presented in Example 4. […] The protein chips allowed to simultaneously quantify the level of phosphorylation of p38 and JNK1/2 due to the effect of anisomycin on cells.

p38 = experiment: Level of phosphorylation of p38 in anisomycin-treated Jurkat cells on multiplex arrays
Description: as §1, §2, §3, §4, §5

[1] = 8 different concentrations of anisomycin

Row | Compound | amount of Erk1/2 (total protein) (Erk1/2) | levels of phosphorylation at threonine 185 and tyrosine 187 of Erk1/2 (Erk1/2) | level of phospho form of JNK1/2 (JNK1/2; [1]) | level of total JNK1/2 (JNK1/2; [1]) | ratio of Phospho vs. total forms of JNK1/2 (JNK1/2; anisomycin 0.01 μM) | ratio of Phospho vs. total forms of JNK1/2 (JNK1/2; anisomycin 1 μM) | level of phospho form of p38 (p38; [1]) | level of total p38 (p38; [1]) | ratio of Phospho vs. total forms of p38 (p38; anisomycin 1 μM) | ratio of Phospho vs. total forms of p38 (p38; anisomycin 100 μM)
1 | CCCCCCCCCCCCCC(=O)O[C@@H]1[C@@H](C)[C@@]2(O)[C@@H](C=C(CO)C[C@]3(O)C(=O)C(C)=C[C@@H]23)[C@@H]2C(C)(C)[C@]12OC(C)=O [PMA, phorbol 12-myristate 13-acetate] | remains constant | increase with the amount of PMA | – | – | – | – | – | – | – | –
2 | COc1ccc(C[C@H]2NC[C@H](O)[C@H]2OC(C)=O)cc1 [anisomycin] | – | – | increase with the anisomycin concentration | remain constant | 0.33 | 0.88 | increase with the anisomycin concentration | remain constant | 0.33 | 1.0
